Laboratory results published in patent US6677362B1, “Solid pharmaceutical dispersions” (Warner-Lambert Company, priority 1991, dated 2004).

Assays:
[1] = in vivo bioavailability studies involving animal models; conditions: administered in its original crystalline form
[2] = solubility of the drug in water / aqueous media; type: physicochemical

bioavailability [1]: poor bioavailability
change of solubility with pH ([2]; as the pH of the aqueous media increases): slightly increases
solubility in water ([2]; water): practically insoluble
SMILES: Cc1c(C)c2c(c(C)c1O)CCC(C)(COc1ccc(CC3SC(=O)NC3=O)cc1)O2 (single isomer, unassigned; (+)) [Romglizone, (+)-5-[4-(6-hydroxy-2,5,7,8-tetramethylchroman-2-ylmethoxy)-benzyl]-2,4-thiazolidinedione]
